According to PMC6659632, “Preferential phosphatidylinositol 5-phosphate binding contributes to a destabilization of the VHS domain structure of Tom1” (Scientific Reports, 2019):
Where two headings read alike, the source gives them in different places. Values belong to the compound of their own block, whether it stands above or below them.

Legend:
Type in all cases: binding
Tom1 VHS domain [1] = target: T1, Tom1 VHS domain (Homo sapiens, UniProt O60784); assay: isothermal titration calorimetry
T1 construct: GST fusion from E. coli Rosetta, GST cut off with thrombin; monomer
Source text: isothermal titration calorimetry on Tom1 VHS domain

Tom1 VHS domain [2] = target: T1, Tom1 VHS domain; assay: thermal denaturation by far-UV CD at […] nm; conditions: molar excess of lipid, nonreducing, 5 mM sodium citrate pH 7.3, 50 mM KF; free protein Tm 47.5 ± 0.1 °C
Tom1 VHS domain [3] = target: T1, Tom1 VHS domain; assay: thermal denaturation by far-UV CD at […] nm; conditions: pre-incubated with excess lipid, nonreducing, 5 mM sodium citrate pH 7.3, 50 mM KF; free protein Tm 47.5 ± 0.1 °C

T1 sequence (O60784 1-140 limits assumed): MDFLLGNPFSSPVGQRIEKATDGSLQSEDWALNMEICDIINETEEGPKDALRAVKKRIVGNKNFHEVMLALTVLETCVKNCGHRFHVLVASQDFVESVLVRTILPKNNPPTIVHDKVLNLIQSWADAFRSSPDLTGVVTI

Kd (Tom1 VHS domain [1]): 214 ± 67.2 µM
Compound: O=P(O)(O)O[C@@H]1[C@@H](O)[C@H](OP(=O)(O)O)[C@H](O)[C@H](O)[C@H]1O [Ins(1,5)P2]

Compound: CCCCCCCC(=O)OC[C@H](COP(=O)([O-])OCC[N+](C)(C)C)OC(=O)CCCCCCC [PtdCho]
Tm (°C) / N to I/D (Tom1 VHS domain [2]): 43.0 ± 0.1 °C

Tm (°C) / N to I/D (Tom1 VHS domain [2]): 37.6 ± 0.3 °C | Kd (Tom1 VHS domain [1]; high-affinity site of two-site fit, nonreducing, 20 mM HEPES pH 7.4, 150 mM KCl, 25 °C): 3.1 ± 0.6 µM
Compound: CCCCCCCC(=O)OC[C@H](COP(=O)(O)O[C@H]1[C@H](O)[C@@H](OP(=O)(O)O)[C@H](O)[C@@H](O)[C@H]1O)OC(=O)CCCCCCC [PtdIns5P]

mid-transition temperature (Tom1 VHS domain [3]): 34 °C
Compound: PtdIns
